One compound from US20070249582A1, “Method of Treating Substance Abuse with Quetiapine” (ASTRAZENECA AB, priority 2001, published 2007) can be followed below.

This data set relates to outpatients with bipolar disorder and cocaine dependence.
The mark [1] stands for this setting: baseline to exit, all evaluable patients.
Setting [2] is: baseline to week 12, LOCF, p<0.003.

`OCCOCCN1CCN(C2=Nc3ccccc3Sc3ccccc32)CC1` [Quetiapine, 11-(4-[2-(2-hydroxyethoxy)ethyl]-1-piperazinyl)dibenzo[b,f][1.4]-thiazepine]: the “Mean amount spent on drugs at baseline” value (8 completers, baseline, past week) was 80.8±105.4 $. Besides, the “Mean amount spent on drugs at exit” value (8 completers, week 12, past week) is 10.0±17.7 $. Also, the “Reduction in amount spent on drugs” value (8 subjects who completed all 12 weeks, p=0.043) is reported as 87%. Besides, under setting [1], the “Dollar amount spent on drugs” value is on record as “did not decrease significantly” and the “Percent of positive urine samples” value is reported as “did not decrease significantly”. Also, under setting [2], the “Brief Psychiatric Rating Scale (BPRS) score” value is given as “improved significantly” and the “Young Mania Rating Scale (YMRS) score” value is “improved significantly”. In addition, for the setting “baseline to week 12, LOCF, p<0.003, mean maximum dose 312.5±95.6 mg/day”, the “Hamilton Depression Scale (HDRS) score” value is “improved significantly”. Further, the “Cravings as measured by the cocaine craving questionnaire (CCQ)” value (baseline to week 12, p<0.05) is “significantly decreased”. Further, where the note is “in vivo”, the Tolerability entry is “well tolerated” and the “Withdrawals because of side effects” value is on record as “no subjects withdrawing because of side effects”.
